In ChEMBL document CHEMBL5212743, “Selectivity Literature for EUbOPEN Chemogenomics Library wave 3” (2023):

Columns and labels:
[1] = molecular target: T1, Chromatin remodeling regulator CECR2 (Homo sapiens, UniProt Q9BXF3); assay: (§1) Selectivity interaction (Bromodomain panel (DSF assay)) EUB0000201c CECR2
Target sequence in this assay (Q9BXF3 whole entry, looked up): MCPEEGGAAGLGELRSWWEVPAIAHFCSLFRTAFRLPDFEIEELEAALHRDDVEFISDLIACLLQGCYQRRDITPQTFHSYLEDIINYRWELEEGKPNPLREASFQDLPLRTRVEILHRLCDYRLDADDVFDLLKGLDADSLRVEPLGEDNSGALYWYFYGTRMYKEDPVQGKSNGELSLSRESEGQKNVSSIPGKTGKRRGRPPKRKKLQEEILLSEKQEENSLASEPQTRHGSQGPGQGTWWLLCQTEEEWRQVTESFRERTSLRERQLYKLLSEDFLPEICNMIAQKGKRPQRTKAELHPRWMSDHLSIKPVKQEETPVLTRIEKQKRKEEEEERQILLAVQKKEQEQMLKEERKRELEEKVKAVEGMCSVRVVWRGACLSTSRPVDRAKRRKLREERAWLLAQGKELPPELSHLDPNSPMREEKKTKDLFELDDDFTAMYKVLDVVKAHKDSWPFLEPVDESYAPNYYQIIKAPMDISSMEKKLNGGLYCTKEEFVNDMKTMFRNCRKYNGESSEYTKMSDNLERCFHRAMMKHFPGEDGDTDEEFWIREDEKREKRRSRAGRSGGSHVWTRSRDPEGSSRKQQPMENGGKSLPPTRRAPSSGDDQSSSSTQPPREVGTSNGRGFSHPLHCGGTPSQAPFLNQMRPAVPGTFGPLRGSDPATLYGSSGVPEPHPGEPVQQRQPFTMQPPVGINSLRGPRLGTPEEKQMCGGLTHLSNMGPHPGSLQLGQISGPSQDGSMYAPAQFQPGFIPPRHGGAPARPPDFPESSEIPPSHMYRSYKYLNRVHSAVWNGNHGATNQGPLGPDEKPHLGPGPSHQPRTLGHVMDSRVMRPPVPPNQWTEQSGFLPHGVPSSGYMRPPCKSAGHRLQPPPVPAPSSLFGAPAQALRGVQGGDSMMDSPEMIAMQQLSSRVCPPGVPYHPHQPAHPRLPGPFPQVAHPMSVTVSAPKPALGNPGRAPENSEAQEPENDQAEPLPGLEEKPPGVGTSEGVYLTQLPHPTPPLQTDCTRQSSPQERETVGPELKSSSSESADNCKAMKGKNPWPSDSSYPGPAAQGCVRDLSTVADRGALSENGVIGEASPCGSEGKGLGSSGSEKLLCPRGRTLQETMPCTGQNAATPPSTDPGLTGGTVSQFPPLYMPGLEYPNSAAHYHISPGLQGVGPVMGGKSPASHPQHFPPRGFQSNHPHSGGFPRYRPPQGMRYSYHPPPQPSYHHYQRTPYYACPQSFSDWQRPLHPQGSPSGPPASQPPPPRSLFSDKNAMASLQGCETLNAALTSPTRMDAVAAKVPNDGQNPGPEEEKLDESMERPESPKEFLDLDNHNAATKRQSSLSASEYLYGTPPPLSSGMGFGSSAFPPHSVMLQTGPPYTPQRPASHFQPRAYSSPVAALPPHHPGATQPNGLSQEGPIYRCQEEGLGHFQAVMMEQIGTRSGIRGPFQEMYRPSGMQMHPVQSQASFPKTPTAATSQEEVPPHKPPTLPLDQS

[2] = molecular target: Transcription initiation factor TFIID subunit 1 (Homo sapiens, UniProt P21675); assay: Selectivity interaction (Bromodomain panel (DSF assay)) EUB0000201c TAF1
[3] = molecular target: T2, Bromodomain-containing protein 7 (Homo sapiens) (UniProt Q9NPI1); assay: Selectivity interaction (Bromodomain panel (DSF assay)) EUB0000201c BRD7
T2 sequence (whole entry): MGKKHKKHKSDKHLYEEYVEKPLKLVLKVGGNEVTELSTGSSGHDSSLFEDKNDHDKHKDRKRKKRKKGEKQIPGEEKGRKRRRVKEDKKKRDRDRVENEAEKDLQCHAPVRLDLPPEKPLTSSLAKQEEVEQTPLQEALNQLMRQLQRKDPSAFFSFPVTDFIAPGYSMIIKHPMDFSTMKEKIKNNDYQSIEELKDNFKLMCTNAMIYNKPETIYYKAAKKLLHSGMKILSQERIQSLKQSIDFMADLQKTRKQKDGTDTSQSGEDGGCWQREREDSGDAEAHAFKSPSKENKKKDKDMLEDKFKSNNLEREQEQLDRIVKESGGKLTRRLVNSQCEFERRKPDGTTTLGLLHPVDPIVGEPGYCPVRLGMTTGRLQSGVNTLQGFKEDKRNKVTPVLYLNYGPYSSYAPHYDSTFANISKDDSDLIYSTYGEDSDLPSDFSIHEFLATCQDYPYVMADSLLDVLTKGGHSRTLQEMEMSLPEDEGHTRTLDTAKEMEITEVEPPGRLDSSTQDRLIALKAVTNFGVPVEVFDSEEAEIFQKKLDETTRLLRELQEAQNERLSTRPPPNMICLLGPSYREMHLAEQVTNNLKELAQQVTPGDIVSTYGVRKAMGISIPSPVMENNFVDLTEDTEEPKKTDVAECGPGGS

[4] = molecular target: T1, Chromatin remodeling regulator CECR2; assay: Selectivity interaction (Cellular FRAP assay) EUB0000201c CECR2
[5] = molecular target: SWI/SNF-related matrix-associated actin-dependent regulator of chromatin subfamily A member 4 (Homo sapiens) (UniProt P51532); assay: Selectivity interaction (Bromodomain panel (DSF assay)) EUB0000201c SMARCA4
[6] = molecular target: Nucleosome-remodeling factor subunit BPTF (Homo sapiens, UniProt Q12830); assay: Selectivity interaction (Bromodomain panel (DSF assay)) EUB0000201c BPTF
[7] = molecular target: T1, Chromatin remodeling regulator CECR2; assay: as §1; remark: listed apart in the source
Target sequence in this assay (Q9BXF3 whole entry, looked up): as the sequence (Q9BXF3 whole entry, looked up) above

[8] = molecular target: Bromodomain-containing protein 4 (Homo sapiens, UniProt O60885); assay: Selectivity interaction (Bromodomain panel (DSF assay)) EUB0000201c BRD4
[9] = molecular target: 5'-AMP-activated protein kinase catalytic subunit alpha-1 (Homo sapiens, UniProt Q13131); assay: Selectivity interaction (Upstate Kinase Profiler service (Millipore)) EUB0000056c PRKAA1
[10] = molecular target: Calcium/calmodulin-dependent protein kinase type II subunit beta (Homo sapiens, UniProt Q13554); assay: Selectivity interaction (Upstate Kinase Profiler service (Millipore)) EUB0000056c CAMK2B
[11] = molecular target: T3, Serine/threonine-protein kinase Sgk1 (Homo sapiens) (UniProt O00141); details: at 1 µM
T3 sequence (whole entry): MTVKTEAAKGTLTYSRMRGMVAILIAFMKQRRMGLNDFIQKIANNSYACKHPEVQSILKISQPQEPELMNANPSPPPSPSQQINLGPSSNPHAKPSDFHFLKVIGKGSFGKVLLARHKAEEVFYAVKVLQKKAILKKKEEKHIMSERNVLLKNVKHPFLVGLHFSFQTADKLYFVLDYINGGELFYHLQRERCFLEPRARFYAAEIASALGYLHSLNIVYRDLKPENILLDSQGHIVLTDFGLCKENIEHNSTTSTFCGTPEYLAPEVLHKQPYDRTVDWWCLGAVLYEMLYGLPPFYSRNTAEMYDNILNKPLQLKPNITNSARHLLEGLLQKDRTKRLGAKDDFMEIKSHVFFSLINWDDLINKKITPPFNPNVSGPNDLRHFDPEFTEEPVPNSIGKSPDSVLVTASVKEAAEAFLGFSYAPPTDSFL

[12] = molecular target: Ephrin type-B receptor 2 (Homo sapiens, UniProt P29323)
[13] = molecular target: Calcium/calmodulin-dependent protein kinase type IV (Homo sapiens) (UniProt Q16566); details: at 1 µM
[14] = molecular target: T4, Mitogen-activated protein kinase 15 (Homo sapiens) (UniProt Q8TD08); details: at 10 µM
T4 sequence (whole entry): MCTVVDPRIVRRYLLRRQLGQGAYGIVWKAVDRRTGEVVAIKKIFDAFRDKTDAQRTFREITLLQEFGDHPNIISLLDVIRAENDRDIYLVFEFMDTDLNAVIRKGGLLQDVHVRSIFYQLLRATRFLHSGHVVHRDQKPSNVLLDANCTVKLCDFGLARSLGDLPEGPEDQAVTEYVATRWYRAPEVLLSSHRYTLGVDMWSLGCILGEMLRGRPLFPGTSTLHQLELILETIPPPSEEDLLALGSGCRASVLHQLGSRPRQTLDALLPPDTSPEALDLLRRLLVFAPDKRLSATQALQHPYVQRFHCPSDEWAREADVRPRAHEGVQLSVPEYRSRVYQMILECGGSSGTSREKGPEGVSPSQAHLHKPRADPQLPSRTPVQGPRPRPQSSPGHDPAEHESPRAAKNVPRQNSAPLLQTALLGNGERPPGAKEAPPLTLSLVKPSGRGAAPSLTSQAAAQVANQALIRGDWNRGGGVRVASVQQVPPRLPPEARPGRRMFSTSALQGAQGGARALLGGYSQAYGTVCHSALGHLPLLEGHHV

[15] = molecular target: Insulin receptor (Homo sapiens, UniProt P06213)
[16] = molecular target: D(3) dopamine receptor (Homo sapiens, UniProt P35462); assay: Selectivity interaction (NIBR principial panel (12 GPCRs, 3 nuclear receptors, 3 transporters, and 7 other enzymes)) EUB0000254b DRD3
[17] = molecular target: Prostaglandin G/H synthase 2 (Homo sapiens, UniProt P35354); assay: Selectivity interaction (NIBR principial panel (12 GPCRs, 3 nuclear receptors, 3 transporters, and 7 other enzymes)) EUB0000254b PTGS2
[18] = molecular target: Acetylcholinesterase (Homo sapiens, UniProt P22303); assay: Selectivity interaction (NIBR principial panel (12 GPCRs, 3 nuclear receptors, 3 transporters, and 7 other enzymes)) EUB0000254b ACHE
Chain of Acetylcholinesterase (P22303 whole entry): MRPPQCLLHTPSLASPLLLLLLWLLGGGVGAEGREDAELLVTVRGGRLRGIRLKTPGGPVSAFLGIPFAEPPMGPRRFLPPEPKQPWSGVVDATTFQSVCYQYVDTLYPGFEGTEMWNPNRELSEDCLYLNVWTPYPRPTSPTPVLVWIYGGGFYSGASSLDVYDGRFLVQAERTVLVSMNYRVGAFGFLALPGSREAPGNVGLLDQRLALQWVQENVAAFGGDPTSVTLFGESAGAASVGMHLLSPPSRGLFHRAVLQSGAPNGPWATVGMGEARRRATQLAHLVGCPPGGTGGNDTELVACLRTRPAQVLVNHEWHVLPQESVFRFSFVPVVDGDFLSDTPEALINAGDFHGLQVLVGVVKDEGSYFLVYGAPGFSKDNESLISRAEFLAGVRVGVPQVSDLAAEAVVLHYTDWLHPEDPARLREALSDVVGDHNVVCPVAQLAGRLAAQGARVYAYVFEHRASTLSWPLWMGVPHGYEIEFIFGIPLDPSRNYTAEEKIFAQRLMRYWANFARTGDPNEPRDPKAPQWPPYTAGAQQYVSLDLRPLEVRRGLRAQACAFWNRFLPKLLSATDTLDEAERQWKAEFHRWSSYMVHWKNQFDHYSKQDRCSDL

Chain of Prostaglandin G/H synthase 2 (P35354 whole entry): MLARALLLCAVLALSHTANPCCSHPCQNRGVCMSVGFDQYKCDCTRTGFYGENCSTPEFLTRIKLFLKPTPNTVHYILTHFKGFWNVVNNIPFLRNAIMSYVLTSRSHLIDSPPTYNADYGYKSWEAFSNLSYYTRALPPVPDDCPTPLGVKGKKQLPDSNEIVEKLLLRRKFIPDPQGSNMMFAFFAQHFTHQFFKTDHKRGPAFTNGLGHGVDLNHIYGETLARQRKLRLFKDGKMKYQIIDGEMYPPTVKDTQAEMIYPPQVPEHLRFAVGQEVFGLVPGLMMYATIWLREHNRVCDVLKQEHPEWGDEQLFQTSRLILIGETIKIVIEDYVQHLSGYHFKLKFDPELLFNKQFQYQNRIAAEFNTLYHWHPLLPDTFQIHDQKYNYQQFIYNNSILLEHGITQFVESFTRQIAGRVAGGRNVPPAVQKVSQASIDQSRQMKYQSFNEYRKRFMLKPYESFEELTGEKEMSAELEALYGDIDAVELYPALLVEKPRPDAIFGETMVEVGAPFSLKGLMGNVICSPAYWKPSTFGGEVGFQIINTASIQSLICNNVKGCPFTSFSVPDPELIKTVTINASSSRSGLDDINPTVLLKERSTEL
Chain of D(3) dopamine receptor (P35462 whole entry): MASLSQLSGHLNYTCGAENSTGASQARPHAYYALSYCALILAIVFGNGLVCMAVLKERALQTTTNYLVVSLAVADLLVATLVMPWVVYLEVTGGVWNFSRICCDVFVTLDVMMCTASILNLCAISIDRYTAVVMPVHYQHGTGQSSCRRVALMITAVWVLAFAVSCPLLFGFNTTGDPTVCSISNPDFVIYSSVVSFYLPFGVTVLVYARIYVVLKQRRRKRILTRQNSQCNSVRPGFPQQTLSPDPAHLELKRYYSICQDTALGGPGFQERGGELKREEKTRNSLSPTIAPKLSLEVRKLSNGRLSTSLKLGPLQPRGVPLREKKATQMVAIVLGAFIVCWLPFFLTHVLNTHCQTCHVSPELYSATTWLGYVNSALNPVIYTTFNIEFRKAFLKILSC
Chain of Insulin receptor (P06213 28-758 limits assumed): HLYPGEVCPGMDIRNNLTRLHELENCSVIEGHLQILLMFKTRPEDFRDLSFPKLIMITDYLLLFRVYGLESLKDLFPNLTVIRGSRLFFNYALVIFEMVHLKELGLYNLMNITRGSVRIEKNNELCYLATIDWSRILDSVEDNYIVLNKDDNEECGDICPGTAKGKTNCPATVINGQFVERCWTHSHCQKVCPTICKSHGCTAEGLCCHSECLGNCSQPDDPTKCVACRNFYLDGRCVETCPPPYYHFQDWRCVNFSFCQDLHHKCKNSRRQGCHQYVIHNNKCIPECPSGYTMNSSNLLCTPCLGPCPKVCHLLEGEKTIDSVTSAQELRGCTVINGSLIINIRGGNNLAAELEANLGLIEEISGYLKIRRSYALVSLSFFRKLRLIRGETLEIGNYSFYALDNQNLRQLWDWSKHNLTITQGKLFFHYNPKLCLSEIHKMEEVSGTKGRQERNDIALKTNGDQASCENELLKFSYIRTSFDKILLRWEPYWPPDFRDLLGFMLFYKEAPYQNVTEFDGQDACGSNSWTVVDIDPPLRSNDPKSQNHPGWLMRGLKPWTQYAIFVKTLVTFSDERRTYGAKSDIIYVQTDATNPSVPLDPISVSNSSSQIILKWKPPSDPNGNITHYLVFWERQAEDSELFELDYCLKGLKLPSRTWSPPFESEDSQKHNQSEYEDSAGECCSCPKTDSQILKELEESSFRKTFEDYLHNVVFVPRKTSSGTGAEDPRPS
Chain of Insulin receptor (P06213 763-1382 limits assumed): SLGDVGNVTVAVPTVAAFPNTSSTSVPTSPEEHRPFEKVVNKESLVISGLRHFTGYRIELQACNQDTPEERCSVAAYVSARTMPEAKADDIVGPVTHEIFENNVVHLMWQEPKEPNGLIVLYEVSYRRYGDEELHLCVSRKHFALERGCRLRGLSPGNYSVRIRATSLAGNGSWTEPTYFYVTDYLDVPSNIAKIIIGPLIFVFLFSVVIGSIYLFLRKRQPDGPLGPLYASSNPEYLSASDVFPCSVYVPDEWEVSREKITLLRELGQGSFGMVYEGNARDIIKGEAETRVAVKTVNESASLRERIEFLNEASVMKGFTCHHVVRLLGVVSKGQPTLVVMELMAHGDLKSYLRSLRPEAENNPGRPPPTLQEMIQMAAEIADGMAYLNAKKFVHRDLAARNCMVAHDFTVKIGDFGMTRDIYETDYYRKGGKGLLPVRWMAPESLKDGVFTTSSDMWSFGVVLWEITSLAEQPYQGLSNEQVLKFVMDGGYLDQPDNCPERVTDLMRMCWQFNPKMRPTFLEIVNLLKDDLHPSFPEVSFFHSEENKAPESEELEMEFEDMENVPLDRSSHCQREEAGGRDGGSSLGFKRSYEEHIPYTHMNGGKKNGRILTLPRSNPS
Chain of 5'-AMP-activated protein kinase catalytic subunit alpha-1 (Q13131 whole entry): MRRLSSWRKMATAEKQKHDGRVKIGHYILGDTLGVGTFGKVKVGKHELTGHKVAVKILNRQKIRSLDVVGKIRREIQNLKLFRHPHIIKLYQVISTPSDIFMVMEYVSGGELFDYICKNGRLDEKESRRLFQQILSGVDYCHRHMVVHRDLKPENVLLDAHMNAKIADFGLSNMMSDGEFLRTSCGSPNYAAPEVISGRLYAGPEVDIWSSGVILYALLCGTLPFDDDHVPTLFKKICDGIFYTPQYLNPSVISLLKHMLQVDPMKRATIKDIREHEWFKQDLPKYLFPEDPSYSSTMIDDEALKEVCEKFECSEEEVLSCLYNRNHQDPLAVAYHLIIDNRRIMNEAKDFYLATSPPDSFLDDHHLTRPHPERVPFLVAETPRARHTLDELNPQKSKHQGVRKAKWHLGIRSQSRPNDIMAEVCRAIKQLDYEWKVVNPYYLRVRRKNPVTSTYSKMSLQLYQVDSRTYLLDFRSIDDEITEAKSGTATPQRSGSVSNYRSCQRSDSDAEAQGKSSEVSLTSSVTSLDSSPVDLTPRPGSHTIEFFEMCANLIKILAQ

CCCS(=O)(=O)c1nc(NC2CC2)cc(-c2ccc3c(ccn3C3CC(C)(C)NC(C)(C)C3)c2)n1
dTm [1]: 15.5 K
dTm [2]: < 2 K
dTm [3]: < 2 K
EC50 [4]: 100 nM
dTm [5]: < 2 K
dTm [6]: < 2 K
dTm [7]: 12.5 K
dTm [8]: < 2 K

Cc1ccc(-c2ccc3c(ccc4sc5c(c43)NC[C@@H](C)NC5=O)n2)cn1
IC50 [9]: 117 nM
IC50 [10]: 70 nM

OCCn1cc(-c2cnc3nnn(Cc4ccc5ncccc5c4)c3n2)cn1 [PF-04217903]
% of inhibition [11]: 0.3%
IC50 [12]: > 10000 nM
% of inhibition [13]: 22.5%
% of inhibition [14]: 0.4%
IC50 [15]: > 10000 nM

Cc1c(Nc2ccc(S(=O)(=O)N3CCN(C)CC3)cc2F)nc2ccc(Nc3cnn(C4CC4)c3)cn2c1=O
IC50 [16]: 950 nM
IC50 [17]: 800 nM
IC50 [18]: 5500 nM
